Patent EP1967193A1, “Enhancement of anticancer therapy by flavonoids” (Vrije Universiteit Medisch Centrum (VUMC), priority 2007, dated 2008)
Where “and” joins values, the source holds several entries; their conditions need not be identical. Equal entries are not always repeated. Entries after “also recorded” stand apart in the source; their conditions may differ.

How the values were obtained:
[1] = tested on: cardiomyocytes; assay: Phase II study: endomyocardial biopsy scored by electron microscopy for DOX-induced cardiotoxicity; assay type: in vivo, human; details: for Biopsy score cum.dose/Δt/grade: left ventricle; for Cum.dose / biopsy score / LVEF: biopsy score: second biopsy
Description: In this example, we evaluated the cardioprotective properties of monoHER given as a 10 minute i.v infusion at a dose of 1500 mg/m^2 in patients with metastatic cancer treated with DOX. For the early detection of DOX-induced cardiotoxicity endomyocardial biopies were taken, because of its high sensitivity and high specificity (18).
(§1) MonoHER was administered as a 10 min intravenous infusion at a dose of 1500 mg/m^2 60 min before every DOX administration. If cardiotoxicity would be observed in the first three evaluable patients, administration according to this dosing scheme would be changed and the following patients would receive DOX infusion either immediately after monoHER (because in plasma and heart Cmax of monoHER is obtained immediately after the end of infusion (17, 19)) or with an interval of 2 hours (to give monoHER the opportunity to convert into an active metabolite, if any).
(§2) After a cumulative dose of 300 mg/m^2 DOX an endomyocardial biopsy was performed and measurement of the LVEF was repeated. The latter was also done at least 3 weeks after the last dose of DOX and a biopsy was repeated if possible. For logistic reasons, the biopsy of patient #8 was done after a cumulative dose of 375 mg/m^2 DOX.
During a left heart catheterization, a 104 cm, 7 french biopsy forceps was used to obtain tissue from the left ventricle. Three to four specimens 0.5 to 1 mm in diameter were obtained. The specimens were fixed in 4% buffered formaldehyde and prepared for electron microscopy.
After fixation in 4% buffered formaldehyde, the heart tissue was post fixed in 1% osmium tetroxide. The tissue was then dehydrated through a graded series of ethanol solutions of 70-95% and embedded in JB-4 Plus resin. Thereafter, 0.5-3.0 µm thick sections were cut with a glass knife. These semithin sections were processed for electron microscopy. Cardiomyocytes with more than 2 microvacuoles, macrovacuoles and/or loss of myofibrils were counted as deviant. The morphological grade determined from the specimens examined by electron microscopy was scored on a 6-point scale previously described by Billingham and Bristow (20, 21): in grade 0 cells are normal; in grade 1, 1.5, 2 and 2.5 deviant cells are < 5%, 5-15%, 16 - 25 % and 26 - 35%, respectively; in grade 3 cell damage is present in more than 35% of cells.

[2] = Phase II study: monitoring of cardiac function (LVEF, ECG); assay type: in vivo, human
Description: (§3) Before starting the study patients were evaluated by a full blood count, serum biochemistry including liver function tests, lactate dehydrogenase (LDH) and cholesterol. Risk factors for cardiovascular disease were also evaluated. An LVEF and an ECG were performed before entry into the study.
(§4) Every subsequent administration of monoHER and DOX was preceded by a full blood count, liver enzymes, serum creatinine and a routine 12-lead ECG. A complete blood count was also done 10 days after the chemotherapy.
as §2
Patients went off study in case of progressive disease, a serious cardiac event, or other events that precluded further treatment. Criteria described by Shapiro et al. (22) were used for diagnosis of cardiac events. Episodes of cardiac dysfunction were characterized according to the New York Heart Association functional classification (23).

[3] = tested on: metastatic solid tumors; assay: Phase II study: assessment of tumor response by CT-scan, ECOG criteria; assay type: in vivo, human; parameters: key to Response on dox: PD = progressive disease; PR = partial remission; SD = stabile disease; details: for partial remission maintained, time after the start of chemotherapy: maintained up to the present
Description: Patients with metastatic solid tumors were entered when they received a DOX-based chemotherapy regimen with a dosage of DOX ≥ 50 mg/m^2/ cycle and an infusion duration ≤ 1 hour. […] The left ventricular ejection fraction (LVEF) was > 50%. Patients were excluded if they had received prior anthracyclines, had prior or actual cardiovascular disease or had prior radiotherapy to the mediastinum.
as §1
Assessment of tumor response was done every 2-3 cycles by CT-scan, using standard ECOG criteria (24).

[4] = Phase II study: adverse events and laboratory monitoring; assay type: in vivo, human
Description: as §1, §3, §4

[5] = Detection of metabolites of monoHER
[6] = cited from earlier work
[7] = tested on: doxorubicin-induced chronic cardiotoxicity; details: preclinical, cited from earlier work
[8] = tested on: STS; details: STS patients without prior chemotherapy; DOX alone; cited from earlier work
[9] = tested on: cardiomyocytes; details: cited from earlier work
[10] = patient 03, cum. dose 480 mg/m^2 DOX
[11] = patient 04, cum. dose 450 mg/m^2 DOX

## C[C@@H]1O[C@@H](OC[C@H]2O[C@@H](Oc3c(-c4ccc(O)c(O)c4)oc4cc(OCCO)cc(O)c4c3=O)[C@H](O)[C@@H](O)[C@@H]2O)[C@H](O)[C@H](O)[C@H]1O [monoHER, 7-monohydroxyethylrutoside]
[1]; 5 patients, median cumulative dose 300 mg/m2 DOX, monoHER 1500 mg/m^2 before DOX
  mean biopsy score according to Billingham: 2.7
[1]; five patients with biopsy, monoHER 1500 mg/m^2
  cardioprotective effect against DOX-induced cardiotoxicity: no cardioprotective effect; also recorded: did not protect against DOX-induced cardiotoxicity
[1]; patient 03, cum. dose 300 mg/m^2 DOX, Δt 60 min after monoHER 1500 mg/m^2
  Biopsy score cum.dose/Δt/grade: 300 / 60 / Grade 3 (in grade 3 cell damage is present in more than 35% of cells)
[1]; [10]
  Cum.dose / biopsy score / LVEF: biopsy score: 3 (in grade 3 cell damage is present in more than 35% of cells)
[1]; [11]
  Cum.dose / biopsy score / LVEF: biopsy score: 2.5 (in grade 1, 1.5, 2 and 2.5 deviant cells are < 5%, 5-15%, 16 - 25 % and 26 - 35%, respectively)
[1]; patient 04, third biopsy
  Biopsy score 10 months after last cycle: 2 (in grade 1, 1.5, 2 and 2.5 deviant cells are < 5%, 5-15%, 16 - 25 % and 26 - 35%, respectively)
[1]; patient 06, cum. dose 300 mg/m^2 DOX, Δt 60 min after monoHER 1500 mg/m^2
  Biopsy score cum.dose/Δt/grade: 300 / 60 / Grade 2.5 (in grade 1, 1.5, 2 and 2.5 deviant cells are < 5%, 5-15%, 16 - 25 % and 26 - 35%, respectively)
[1]; patient 07, cum. dose 300 mg/m^2 DOX, Δt 10 min after monoHER 1500 mg/m^2
  Biopsy score cum.dose/Δt/grade: 300 / 10 / Grade 3 (in grade 3 cell damage is present in more than 35% of cells)
[1]; patient 08, cum. dose 375 mg/m^2 DOX, Δt 120 min after monoHER 1500 mg/m^2
  Biopsy score cum.dose/Δt/grade: 375 / 120 / Grade 3 (in grade 3 cell damage is present in more than 35% of cells)
[1]; patient #3, after 300 mg/m^2 DOX, monoHER 60 min before DOX
  microvacuoles present in % of the cardiomyocytes: 52%
[1]; patient #4, after 300 mg/m^2 DOX, monoHER 60 min before DOX
  microvacuoles present in % of the cardiomyocytes: 20%
[1]; patient #6, after 300 mg/m^2 DOX, monoHER 60 min before DOX
  cardiomyocytes with > 2 small vacuoles per cardiomyocyte: 33%
[1]; patient #7, DOX immediately after monoHER
  microvacuolization in % of the cardiomyocytes: 60%
[1]; patient #8, DOX 2 h after monoHER
  microvacuolization in % of the cardiomyocytes: 49%
[2]; after 300-375 mg/m^2 DOX, no LVEF information for patient #6
  patients in whom the LVEF decreased: 4/5
[2]; all patients
  ECG during therapy: remained unchanged
[2]; all patients, during therapy
  cardiac dysfunction: no cardiac dysfunction occurred
[2]; patient 03
  LVEF 10 months after last cycle: ND / 51%
[2]; patient 03, LVEF before dox 71%, Δt 60 min
  LVEF after ≥ 300 mg/m^2: 67%
[2]; [10]
  Cum.dose / biopsy score / LVEF: LVEF: 53%
[2]; patient 04
  LVEF 10 months after last cycle: 62%
[2]; patient 04, LVEF before dox 72%, Δt 60 min
  LVEF after ≥ 300 mg/m^2: 60%
[2]; [11]
  Cum.dose / biopsy score / LVEF: LVEF: 66%
[2]; patient 07, LVEF before dox 75%, Δt 10 min
  LVEF after ≥ 300 mg/m^2: 63%
[2]; patient 08, LVEF before dox 65%, Δt 120 min, 375 mg/m^2 DOX
  LVEF after ≥ 300 mg/m^2: 63%
[2]; patient #3, after 480 mg/m2 DOX, 71% to 53%
  decline of LVEF compared to the ejection fraction before start of the study: 25%
[2]; patient #4, 72% before chemotherapy to 60% after 300 mg/m2 DOX
  decline of LVEF: > 15%
[2]; two other patients
  LVEF decrease in comparison to the initial LVEF: 4-6%
[2]; two patients
  LVEF drop in comparison to the initial LVEF: 16%
[3]; 4 patients with metastatic soft tissue sarcoma (STS), DOX preceded by monoHER 1500 mg/m^2
  patients with partial remission / objective remission: Three and 3 of the four
[3]; STS patients
  effect on antitumour activity of DOX: enhances the antitumour activity of DOX
[3]; patient 01, Breast cancer, total DOX 100 mg/m^2, monoHER 1500 mg/m^2 i.v. 60 min before every DOX
  Response on dox: PD
[3]; patient 02, Adrenal cortical cancer, total DOX 150 mg/m^2, monoHER 1500 mg/m^2 i.v. 60 min before every DOX
  Response on dox: PD
[3]; patient 03, Malignant peripheral nerve sheet tumor, total DOX 480 mg/m^2, monoHER 1500 mg/m^2 i.v. 60 min before every DOX
  Response on dox: PR
[3]; patient 04, Malignant fibrous histiocytoma, total DOX 450 mg/m^2, monoHER 1500 mg/m^2 i.v. 60 min before every DOX
  Response on dox: PR
[3]; patient 05, Breast cancer, total DOX 100 mg/m^2, monoHER 1500 mg/m^2 i.v. 60 min before every DOX
  Response on dox: PD
[3]; patient 06, Breast cancer, total DOX 300 mg/m^2, monoHER 1500 mg/m^2 i.v. 60 min before every DOX
  Response on dox: SD
[3]; patient 07, Malignant fibrous histiocytoma, total DOX 300 mg/m^2, DOX immediately after monoHER 1500 mg/m^2 i.v.
  Response on dox: PR
[3]; patient 08, Malignant fibrous histiocytoma, total DOX 375 mg/m^2, DOX 2 h after monoHER 1500 mg/m^2 i.v.
  Response on dox: SD
[3]; patient #3, then progressive disease
  duration of partial remission: nine
[3]; patient #4
  partial remission maintained, time after the start of chemotherapy: ≥ 30 months
[3]; patient #7
  partial remission maintained, time after the start of chemotherapy: ≥ 16 months
[3]; patient #8, continuing DOX up to cumulative dose of 495 mg/m^2
  duration of stable disease: at least 7 months
[4]; 8 patients, sensation of fullness in stomach (one), itching in skin of neck (one), during each cycle
  adverse events during monoHER infusion: two patients reported adverse events
[4]; due to chemotherapy, recovered before the start of the next cycle
  leucopenia: all patients developed leucopenia
[4]; monoHER 1500 mg/m^2 plus DOX
  liver enzymes and serum creatinine: No disturbances
[5]
  metabolites of monoHER: no metabolites of monoHER have been detected until now
[6]; dose 1500 mg/m^2
  Cmax and AUC: comparable to those obtained in mice under protecting conditions
[6]; up to a dose of 1500 mg/m^2
  side effects: No serious side effects were observed
[7]; in vitro or in vivo
  influence on the antitumor activity of doxorubicin: did not influence the antitumor activity of doxorubicin
[7]; animals
  cardioprotection against doxorubicin-induced chronic cardiotoxicity: dose-dependent cardioprotection

## COc1cccc2c1C(=O)c1c(O)c3c(c(O)c1C2=O)C[C@@](O)(C(=O)CO)C[C@@H]3O[C@H]1C[C@H](N)[C@H](O)[C@H](C)O1 [DOX, doxorubicin]
[8]
  objective responses on DOX: approximately 25%
[9]; cumulative DOX doses of 240 mg/m^2, data of Billingham et al.
  patients with anthracycline-induced myocardial damage: nearly all patients
[9]; cumulative dose of 300 mg/m^2 DOX, linear regression analysis of Torti et al., right ventricle
  biopsy score expected after DOX alone: 1.4
